# Measured values from patent publication US20210353593A1 (Chinook Therapeutics, Inc., priority 2019, published 2021).
# “Also recorded” adds a separate entry of the source.
# Tests used:
# [1] = test system: canonical signaling pathways in kidney tissue of g-ddY mice; experiment: Ingenuity Pathway Analysis (IPA) canonical pathways, g-ddY mouse kidney RNA-seq; type: in vivo
# g-ddY mice = experiment: Albuminuria (UACR) in g-ddY mouse model of IgA nephropathy; type: in vivo
# From the text: The grouped ddY (g-ddY) mouse is a spontaneous model of early-onset IgA nephropathy characterized by IgA immune complex deposition in the mesangium of the kidney, leading to significant proteinuria, glomerular hypercellularity, mesangioproliferative glomerular lesions, glomerular sclerosis and reduced kidney function, all hallmarks of human IgA nephropathy (J Am Soc Nephrol 23: 1364-1374, 2012). Consistent with human IgA nephropathy, the mesangial IgA deposits in the g-ddY mouse are also accompanied by deposition of IgG and complement C3.
# ET-1 stimulated HRMC = experiment: Hallmark gene set enrichment in ET-1 stimulated HRMC treated with atrasentan; type: cell-based, human; conditions: atrasentan at 1 nM and 25 nM
# [2] = 10 mg/kg/day, approximately 5 days
structure (smiles),measurement,setting,value
"CCCCN(CCCC)C(=O)CN1C[C@H](c2ccc3c(c2)OCO3)[C@@H](C(=O)O)[C@@H]1c1ccc(OC)cc1 [Atrasentan, (2R,3R,4S)-4-(1,3-benzodioxol-5-yl)-1-[2-(dibutylamino)-2-oxoethyl]-2-(4-methoxyphenyl)pyrrolidine-3-carboxylic acid]",Acute Myeloid Leukemia Signaling z-score,[1]; 10 mg/kg/day,−0.258
same,Acute Phase Response Signaling z-score,[1]; 10 mg/kg/day,−1.177
same,Apelin Cardiac Fibroblast Signaling Pathway z-score,[1]; 10 mg/kg/day,1.134
same,CXCR4 Signaling z-score,[1]; 10 mg/kg/day,0
same,Cardiac Hypertrophy Signaling (Enhanced) z-score,[1]; 10 mg/kg/day,0.361
same,Folate Polyglutamylation z-score,[1]; 10 mg/kg/day,−1
same,GM-CSF Signaling z-score,[1]; 10 mg/kg/day,−0.243
same,GP6 Signaling Pathway z-score,[1]; 10 mg/kg/day,0
same,Glioblastoma Multiforme Signaling z-score,[1]; 10 mg/kg/day,1
same,Glioma Signaling z-score,[1]; 10 mg/kg/day,0.5
same,Gluconeogenesis I z-score,[1]; 10 mg/kg/day,0.905
same,Glutathione Redox Reactions I z-score,[1]; 10 mg/kg/day,−0.302
same,Glycolysis I z-score,[1]; 10 mg/kg/day,0.577
same,Gα12/13 Signaling z-score,[1]; 10 mg/kg/day,−1.279
same,Gαg Signaling z-score,[1]; 10 mg/kg/day,1
same,HGF Signaling z-score,[1]; 10 mg/kg/day,−0.688
same,Hepatic Fibrosis Signaling Pathway z-score,[1]; 10 mg/kg/day,−0.25
same,IGF-1 Signaling z-score,[1]; 10 mg/kg/day,0.243
same,IL-8 Signaling z-score,[1]; 10 mg/kg/day,0.365
same,Integrin Signaling z-score,[1]; 10 mg/kg/day,−0.928
same,LPS/IL-1 Mediated Inhibition of RXR Function z-score,[1]; 10 mg/kg/day,0.535
same,Lymphotoxin β Receptor Signaling z-score,[1]; 10 mg/kg/day,−1.508
same,Macropinocytosis Signaling z-score,[1]; 10 mg/kg/day,0.277
same,NF-κB Activation by Viruses z-score,[1]; 10 mg/kg/day,0
same,NF-κB Signaling z-score,[1]; 10 mg/kg/day,0.507
same,NRF2-mediated Oxidative Stress Response z-score,[1]; 10 mg/kg/day,0.471
same,Oxidative Phosphorylation z-score,[1]; 10 mg/kg/day,−0.309
same,PDGF Signaling z-score,[1]; 10 mg/kg/day,−0.5
same,PEDF Signaling z-score,[1]; 10 mg/kg/day,0
same,PI3K Signaling in B Lymphocytes z-score,[1]; 10 mg/kg/day,0.426
same,PI3K/AKT Signaling z-score,[1]; 10 mg/kg/day,0.447
same,PTEN Signaling z-score,[1]; 10 mg/kg/day,−0.426
same,Paxillin Signaling z-score,[1]; 10 mg/kg/day,−1
same,Relaxin Signaling z-score,[1]; 10 mg/kg/day,−0.535
same,STAT3 Pathway z-score,[1]; 10 mg/kg/day,−0.218
same,Sirtuin Signaling Pathway z-score,[1]; 10 mg/kg/day,0.849
same,Small Cell Lung Cancer Signaling z-score,[1]; 10 mg/kg/day,−0.905
same,Sperm Motility z-score,[1]; 10 mg/kg/day,1.213
same,Sphingosine-1-phosphate Signaling z-score,[1]; 10 mg/kg/day,−0.218
same,TCA Cycle II (Eukalyotic) z-score,[1]; 10 mg/kg/day,0.277
same,TNFR2 Signaling z-score,[1]; 10 mg/kg/day,−1.89
same,Thrombin Signaling z-score,[1]; 10 mg/kg/day,1.3
same,Toll-like Receptor Signaling z-score,[1]; 10 mg/kg/day,−0.302
same,Tryptophan Degradation III (Eukalyotic) z-score,[1]; 10 mg/kg/day,0.378
same,Xenobiotic Metabolism General Signaling Pathway z-score,[1]; 10 mg/kg/day,−0.577
same,Acute Myeloid Leukemia Signaling z-score,[1]; 20 mg/kg/day,−0.853
same,Acute Phase Response Signaling z-score,[1]; 20 mg/kg/day,−1.298
same,Apelin Cardiac Fibroblast Signaling Pathway z-score,[1]; 20 mg/kg/day,0.577
same,CXCR4 Signaling z-score,[1]; 20 mg/kg/day,0.333
same,Cardiac Hypertrophy Signaling (Enhanced) z-score,[1]; 20 mg/kg/day,−0.396
same,Folate Polyglutamylation z-score,[1]; 20 mg/kg/day,0.447
same,GM-CSF Signaling z-score,[1]; 20 mg/kg/day,−1.46
same,GP6 Signaling Pathway z-score,[1]; 20 mg/kg/day,−1.715
same,Glioblastoma Multiforme Signaling z-score,[1]; 20 mg/kg/day,−0.16
same,Glioma Signaling z-score,[1]; 20 mg/kg/day,−0.816
same,Gluconeogenesis I z-score,[1]; 20 mg/kg/day,−0.302
same,Glutathione Redox Reactions I z-score,[1]; 20 mg/kg/day,−0.277
same,Glycolysis I z-score,[1]; 20 mg/kg/day,0
same,Gα12/13 Signaling z-score,[1]; 20 mg/kg/day,−0.707
same,Gαg Signaling z-score,[1]; 20 mg/kg/day,−0.822
same,HGF Signaling z-score,[1]; 20 mg/kg/day,0
same,Hepatic Fibrosis Signaling Pathway z-score,[1]; 20 mg/kg/day,−3.181
same,IGF-1 Signaling z-score,[1]; 20 mg/kg/day,−0.408
same,IL-8 Signaling z-score,[1]; 20 mg/kg/day,−0.905
same,Integrin Signaling z-score,[1]; 20 mg/kg/day,−1.342
same,LPS/IL-1 Mediated Inhibition of RXR Function z-score,[1]; 20 mg/kg/day,0.626
same,Lymphotoxin β Receptor Signaling z-score,[1]; 20 mg/kg/day,−1.291
same,Macropinocytosis Signaling z-score,[1]; 20 mg/kg/day,0.243
same,NF-κB Activation by Viruses z-score,[1]; 20 mg/kg/day,−0.816
same,NF-κB Signaling z-score,[1]; 20 mg/kg/day,−1.313
same,NRF2-mediated Oxidative Stress Response z-score,[1]; 20 mg/kg/day,−0.392
same,Oxidative Phosphorylation z-score,[1]; 20 mg/kg/day,−0.283
same,PDGF Signaling z-score,[1]; 20 mg/kg/day,−2.353
same,PEDF Signaling z-score,[1]; 20 mg/kg/day,−1.043
same,PI3K Signaling in B Lymphocytes z-score,[1]; 20 mg/kg/day,−1.333
same,PI3K/AKT Signaling z-score,[1]; 20 mg/kg/day,−0.18
same,PTEN Signaling z-score,[1]; 20 mg/kg/day,1.029
same,Paxillin Signaling z-score,[1]; 20 mg/kg/day,−0.626
same,Relaxin Signaling z-score,[1]; 20 mg/kg/day,−0.853
same,STAT3 Pathway z-score,[1]; 20 mg/kg/day,0.192
same,Sirtuin Signaling Pathway z-score,[1]; 20 mg/kg/day,0.62
same,Small Cell Lung Cancer Signaling z-score,[1]; 20 mg/kg/day,−1.886
same,Sperm Motility z-score,[1]; 20 mg/kg/day,1.633
same,Sphingosine-1-phosphate Signaling z-score,[1]; 20 mg/kg/day,−0.73
same,TCA Cycle II (Eukalyotic) z-score,[1]; 20 mg/kg/day,−0.535
same,TNFR2 Signaling z-score,[1]; 20 mg/kg/day,0
same,Thrombin Signaling z-score,[1]; 20 mg/kg/day,−0.926
same,Toll-like Receptor Signaling z-score,[1]; 20 mg/kg/day,−0.258
same,Tryptophan Degradation III (Eukalyotic) z-score,[1]; 20 mg/kg/day,−1.265
same,Xenobiotic Metabolism General Signaling Pathway z-score,[1]; 20 mg/kg/day,−1.581
same,Acute Myeloid Leukemia Signaling z-score,[1]; 30 mg/kg/day,−1.134
same,Acute Phase Response Signaling z-score,[1]; 30 mg/kg/day,−2.832
same,Apelin Cardiac Fibroblast Signaling Pathway z-score,[1]; 30 mg/kg/day,1.732
same,CXCR4 Signaling z-score,[1]; 30 mg/kg/day,−2.214
same,Cardiac Hypertrophy Signaling (Enhanced) z-score,[1]; 30 mg/kg/day,−6.236
same,Folate Polyglutamylation z-score,[1]; 30 mg/kg/day,1.342
same,GM-CSF Signaling z-score,[1]; 30 mg/kg/day,−1.225
same,GP6 Signaling Pathway z-score,[1]; 30 mg/kg/day,−4.938
same,Glioblastoma Multiforme Signaling z-score,[1]; 30 mg/kg/day,−3.464
same,Glioma Signaling z-score,[1]; 30 mg/kg/day,−2.353
same,Gluconeogenesis I z-score,[1]; 30 mg/kg/day,3.464
same,Glutathione Redox Reactions I z-score,[1]; 30 mg/kg/day,2.496
same,Glycolysis I z-score,[1]; 30 mg/kg/day,3.051
same,Gα12/13 Signaling z-score,[1]; 30 mg/kg/day,−0.949
same,Gαg Signaling z-score,[1]; 30 mg/kg/day,−2.16
same,HGF Signaling z-score,[1]; 30 mg/kg/day,−3.182
same,Hepatic Fibrosis Signaling Pathway z-score,[1]; 30 mg/kg/day,−5.058
same,IGF-1 Signaling z-score,[1]; 30 mg/kg/day,−1.633
same,IL-6 signaling,[1]; 30 mg/kg/day,reduced
same,IL-8 Signaling z-score,[1]; 30 mg/kg/day,−2.828
same,Integrin Signaling z-score,[1]; 30 mg/kg/day,−3.311
same,LPS/IL-1 Mediated Inhibition of RXR Function z-score,[1]; 30 mg/kg/day,−2.746
same,Lymphotoxin β Receptor Signaling z-score,[1]; 30 mg/kg/day,−2.183
same,Macropinocytosis Signaling z-score,[1]; 30 mg/kg/day,−2.828
same,NF-κB Activation by Viruses z-score,[1]; 30 mg/kg/day,−3.9
same,NF-κB Signaling z-score,[1]; 30 mg/kg/day,−4.636
same,NF-κB signaling,[1]; 30 mg/kg/day,reduced
same,NRF2-mediated Oxidative Stress Response z-score,[1]; 30 mg/kg/day,1.3
same,Oxidative Phosphorylation z-score,[1]; 30 mg/kg/day,7.02
same,PDGF Signaling z-score,[1]; 30 mg/kg/day,−3.528
same,PDGF signaling,[1]; 30 mg/kg/day,reduced
same,PEDF Signaling z-score,[1]; 30 mg/kg/day,−3.922
same,PI3K Signaling in B Lymphocytes z-score,[1]; 30 mg/kg/day,−4.041
same,PI3K/AKT Signaling z-score,[1]; 30 mg/kg/day,−1.947
same,PTEN Signaling z-score,[1]; 30 mg/kg/day,2.214
same,Paxillin Signaling z-score,[1]; 30 mg/kg/day,−2.268
same,Relaxin Signaling z-score,[1]; 30 mg/kg/day,−2.449
same,STAT3 Pathway z-score,[1]; 30 mg/kg/day,−2.556
same,Sirtuin Signaling Pathway z-score,[1]; 30 mg/kg/day,−1.254
same,Small Cell Lung Cancer Signaling z-score,[1]; 30 mg/kg/day,−2.236
same,Sperm Motility z-score,[1]; 30 mg/kg/day,−2.263
same,Sphingosine-1-phosphate Signaling z-score,[1]; 30 mg/kg/day,−1.808
same,TCA Cycle II (Eukalyotic) z-score,[1]; 30 mg/kg/day,3.207
same,TNFR2 Signaling z-score,[1]; 30 mg/kg/day,−1.291
same,Thrombin Signaling z-score,[1]; 30 mg/kg/day,−2.828
same,Toll-like Receptor Signaling z-score,[1]; 30 mg/kg/day,−2.982
same,Tryptophan Degradation III (Eukalyotic) z-score,[1]; 30 mg/kg/day,3.742
same,Xenobiotic Metabolism General Signaling Pathway z-score,[1]; 30 mg/kg/day,−0.152
same,mice with reduced albuminuria,g-ddY mice; 10 mg/kg/day group,⅔
same,reduction of UACR from baseline,"g-ddY mice; 10 mg/kg/day in drinking water, approximately 5 days",28±44%
same,albuminuria vs baseline (paired t-test),g-ddY mice; [2],not significantly changed from baseline
same,effect on UACR compared to control group (un-paired t-test),g-ddY mice; [2],not significant
same,reduction of UACR from baseline,"g-ddY mice; 20 mg/kg/day in drinking water, approximately 5 days",62±8%
same,effect on UACR compared to control group (un-paired t-test),"g-ddY mice; 20 mg/kg/day, approximately 5 days, P=0.0498",statistically significant compared to the control group; also recorded: significantly reduced albuminuria
same,albuminuria vs baseline (paired t-test),"g-ddY mice; 20 mg/kg/day, approximately 5 days, P=0.0593",reduced from baseline to a similar extent
same,reduction of UACR from baseline,"g-ddY mice; 30 mg/kg/day in drinking water, approximately 5 days",63±6%
same,albuminuria vs baseline (paired t-test),"g-ddY mice; 30 mg/kg/day, approximately 5 days","significantly (P=0.0002, paired two-sided t-test) reduced albuminuria from baseline"
same,effect on UACR compared to control group (un-paired t-test),"g-ddY mice; 30 mg/kg/day, approximately 5 days, P=0.029",statistically significant compared to the control group; also recorded: significantly reduced albuminuria
same,magnitude of albuminuria lowering (reduction from baseline),"g-ddY mice; 20 and 30 mg/kg/day, approximately 5 days",> 60%
same,hallmark gene set enrichment in HRMC model,ET-1 stimulated HRMC,under-expression of hallmark gene sets
